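Each compound was tested at five concentrations against cells in 96-well plates for 48 hours. At the GI50, growth is halved.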 Active and inactive are the calls of the source. Rule as the data show it: active = GI50 up to about 1.1 µM and inactive = higher.
Tests used:
Experiment in all cases: DTP human tumour cell line panel, 48 h
SN12C = test system: SN12C
MDA-MB-435 = test system: MDA-MB-435
SK-MEL-2 = test system: SK-MEL-2
HCC 2998 = test system: HCC 2998
TK-10 = test system: TK-10
RXF 393 = test system: RXF 393
RPMI-8226 = test system: RPMI-8226
CCRF-CEM = test system: CCRF-CEM
EKVX = test system: EKVX
SR = test system: SR
SK-MEL-5 = test system: SK-MEL-5
UACC-257 = test system: UACC-257
SW-620 = test system: SW-620
SK-OV-3 = test system: SK-OV-3
SNB-19 = test system: SNB-19
NCI/ADR-RES = test system: NCI/ADR-RES
SF-268 = test system: SF-268
ACHN = test system: ACHN
NCI-H460 = test system: NCI-H460
HL-60 = test system: HL-60

Measured: GI50

CCCCI(O)OS(=O)(=O)c1ccc(C)cc1
inactive: SN12C > 100 µM | MDA-MB-435 > 100 µM | SK-MEL-2 > 100 µM | HCC 2998 > 100 µM | TK-10 > 100 µM | RXF 393 > 100 µM | RPMI-8226 50.6 µM | CCRF-CEM 53.5 µM | EKVX 38 µM | SR 55.3 µM | SK-MEL-5 > 100 µM | UACC-257 > 100 µM | SW-620 > 100 µM | SK-OV-3 > 100 µM | SNB-19 > 100 µM | NCI/ADR-RES 29.6 µM | SF-268 > 100 µM | ACHN > 100 µM

CCNC(=S)NNC(=O)c1csc(NC(=S)NC2CCCCC2)n1
inactive: SN12C 3.19 µM | MDA-MB-435 4.1 µM | SK-MEL-2 12.3 µM | HCC 2998 8.17 µM | TK-10 19.1 µM | RPMI-8226 11.7 µM | CCRF-CEM 4.55 µM | NCI-H460 6.62 µM | EKVX > 100 µM | SR 3.5 µM | SK-MEL-5 2.79 µM | UACC-257 4.79 µM | SW-620 5.27 µM | SK-OV-3 21.3 µM | SNB-19 37.5 µM | NCI/ADR-RES 14.4 µM | SF-268 10.8 µM | ACHN 7 µM

O=c1onc2n1-c1cc(Cl)ccc1C(=S)N1CSCC21 (configuration not stated)
inactive: SN12C > 100 µM | MDA-MB-435 > 100 µM | SK-MEL-2 > 100 µM | HCC 2998 > 100 µM | TK-10 > 100 µM | RXF 393 > 100 µM | RPMI-8226 > 100 µM | CCRF-CEM 55.8 µM | NCI-H460 > 100 µM | EKVX > 100 µM | SR 34.6 µM | SK-MEL-5 > 100 µM | UACC-257 > 100 µM | SW-620 > 100 µM | SK-OV-3 > 100 µM | SNB-19 > 100 µM | NCI/ADR-RES > 100 µM | SF-268 > 100 µM | ACHN > 100 µM

Cc1cc(-c2cc(C(C)(C)C)c(O)c(C(C)(C)C)c2)c(C)cc1-c1cc(C(C)(C)C)c(O)c(C(C)(C)C)c1
inactive: SN12C > 100 µM | MDA-MB-435 13.6 µM | SK-MEL-2 > 100 µM | TK-10 > 100 µM | RPMI-8226 > 100 µM | CCRF-CEM > 100 µM | EKVX > 100 µM | SR 41.2 µM | SK-MEL-5 > 100 µM | UACC-257 > 100 µM | SW-620 > 100 µM | SK-OV-3 > 100 µM | SNB-19 > 100 µM | HL-60 > 100 µM | NCI/ADR-RES > 100 µM | SF-268 > 100 µM | ACHN > 100 µM

BrC(=C(c1ccc(OC2CCCCO2)cc1)c1ccc(OC2CCCCO2)cc1)c1ccccc1 (configuration not stated)
inactive: SN12C > 100 µM | MDA-MB-435 > 100 µM | TK-10 28.8 µM | RXF 393 > 100 µM | RPMI-8226 > 100 µM | CCRF-CEM > 100 µM | NCI-H460 > 100 µM | EKVX > 100 µM | SR > 100 µM | UACC-257 > 100 µM | SW-620 > 100 µM | SK-OV-3 > 100 µM | SNB-19 > 100 µM | HL-60 > 100 µM | NCI/ADR-RES > 100 µM | SF-268 > 100 µM

COC1C(O)CC(OC2C(C)OC(Oc3cc(O)c4c(O)c5c(cc4c3)C[C@@H]([C@H](OC)C(=O)[C@@H](O)[C@@H](C)O)[C@H](OC3CC(OC4CC(OC6CC(C)(O)C(O)C(C)O6)C(O)C(C)O4)C(O)C(C)O3)C5=O)CC2OC(C)=O)OC1C (some centres not stated)
inactive: SN12C 32.5 µM | MDA-MB-435 34 µM | SK-MEL-2 79.3 µM | HCC 2998 97.9 µM | TK-10 > 100 µM | RPMI-8226 60.8 µM | CCRF-CEM > 100 µM | NCI-H460 31.6 µM | EKVX > 100 µM | SR 63.5 µM | SK-MEL-5 17.1 µM | SW-620 > 100 µM | SK-OV-3 > 100 µM | SNB-19 33.2 µM | HL-60 > 100 µM | NCI/ADR-RES > 100 µM | SF-268 97.1 µM | ACHN 56.1 µM

O=C1CC(O)c2c(Cl)sc(Cl)c21 (configuration not stated)
inactive: SN12C 11.3 µM | MDA-MB-435 8.02 µM | SK-MEL-2 13.5 µM | HCC 2998 27.2 µM | TK-10 15.9 µM | RXF 393 3.68 µM | RPMI-8226 7.19 µM | CCRF-CEM 1.7 µM | NCI-H460 22.8 µM | EKVX 18.7 µM | SR 2.71 µM | SK-MEL-5 17.1 µM | UACC-257 9.98 µM | SW-620 3.13 µM | SK-OV-3 22.5 µM | SNB-19 21.7 µM | NCI/ADR-RES 22.9 µM | SF-268 3.66 µM | ACHN 12.2 µM

COC(=O)C1(C(=O)OC)Cc2ccc(OC)cc2C2=C1C(=O)c1ccccc1C2=O
inactive: SN12C 4.42 µM | MDA-MB-435 1.97 µM | SK-MEL-2 5.7 µM | HCC 2998 19.5 µM | TK-10 18.4 µM | CCRF-CEM 2.15 µM | NCI-H460 16.1 µM | EKVX 4.46 µM | SR 3.54 µM | SK-MEL-5 7.4 µM | UACC-257 2.48 µM | SW-620 6.47 µM | SNB-19 16.9 µM | HL-60 2.24 µM | NCI/ADR-RES 2.69 µM | SF-268 6.67 µM | ACHN 5.74 µM

From ChEMBL document CHEMBL1201862, “PubChem BioAssay data set” (2004)
